As usually defined, the melting point is the temperature of the solid-liquid transition.

Molecules are shown by their SMILES.

`O=C(c1ccccc1)C(O)CCl` (stereo not drawn) yielded a melting point of 42 to 45 °C.
On to `O=C1C=C(NC2CCN(Cc3ccccc3)CC2)CCC1`, for which the melting point was in the range of 171 to 172 °C.
For the compound `Cc1ncc(C#N)c(Nc2ccc3[nH]ccc3c2C)c1-c1cc2cc(CN3CCN(C)CC3)ccc2o1`, the melting point lay in the range of 218 to 220 °C.
Consider `O=C(O)C1CCc2[nH]c3ccc(Cl)c(Cl)c3c2C1` (stereo not drawn), for which the melting point lay within 244 to 245 °C.
With `Cc1nc(C(C)(C)C)ccc1/C=C/C(=O)Nc1ccc2cc[nH]c2c1`, the melting point was determined as 182 °C.
For the compound `CCn1c2ccc(I)cc2c2cc(I)ccc21`, the melting point was 75 to 79 °C.
Compound `C[C@H]1Oc2ccc(Br)cc2C(=O)N2CCCC[C@@H]12` (racemic) gave a melting point of 105 to 106 °C.
As for `COC(=O)CC(O)/C=C/c1c(-c2ccc(F)cc2)n(C(C)C)c(=O)c2ccccc12` (stereo not drawn), the figure is 167 to 168 °C.
On to `CC(C)(C)OC(=O)CN(C(=O)CN1C(=O)c2ccccc2C1=O)c1ccccc1-c1ccccc1`, for which the melting point is 145 °C.
Take `CCOC(=O)/C=C/c1ccc(Cn2ccnc2)c(Cl)c1`: the melting point lay within 112 to 114 °C.
Consider `CCCCNc1ccc2n[nH]c(=O)n2n1`, for which the melting point is 259 to 261 °C.
In the case of `CN(C(=O)c1cc(C(F)(F)F)cc(C(F)(F)F)c1)C(CC(=O)O)Cc1ccc2ccccc2c1` (stereo not drawn), the melting point was 128 to 130 °C.
In the case of `CO[C@@H](C(=O)N[C@H]1CC[C@@H](OC(=O)C2CCCCCC2)CNC1=O)[C@H](O)[C@@H](O)[C@H](O)/C=C/C(C)(C)C`, the melting point is 84 to 86 °C.
As for `CC(C)(Oc1ccc(OCc2nc(-c3ccc(C(C)(C)C)cc3)no2)cc1)C(=O)O`, the figure is 138 to 140 °C; as for `Cc1ccc(S(=O)(=O)N2[C@@H](c3nn[nH]n3)CC[C@H]2c2ccc(F)cc2)cc1` (racemic), 150 °C; as for `CCOC(=O)COc1ccc(Cn2c(-c3ccc(OC4CCCC4)cc3)c(C)c3cc(OCc4ccccc4)ccc32)cc1`, 96 to 98 °C.
In turn, `C(=Cc1cc(OCc2ccccc2)cc(OCc2ccccc2)c1)c1ccc(OCc2ccccc2)cc1` gave a melting point of 156 to 158 °C.
Compound `CNc1nc(-c2cncc(C#Cc3cccnc3)c2)c2cc(OC)c(OC)cc2n1` gave a melting point of 208 to 211 °C.
For the compound `COc1cccc(OC)c1C#CC(F)(F)F`, the melting point is 110 to 111 °C.
For the compound `CN1CCN(c2ccc(N)cc2C(F)(F)F)CC1`, the melting point lay in the range of 121 to 123 °C.
As for `CCC(C#N)C(=O)Nc1ccc(C2=NNC(=O)CC2C)cc1` (stereo not drawn), the melting point lay within 225 to 227 °C.
Compound `CC(C)(C)C1CCC2(CC1)CC(O)(CNC1CCCCC1)CO2` (stereo not drawn) registered a melting point of 113 to 115 °C.
For `O=C(O)c1cccnc1N1CCc2ccccc2C1`, the melting point is 150 to 152 °C.
In the case of `Nc1cc2c(cc1[N+](=O)[O-])OCO2`, the melting point is 199 to 201 °C.
As for `CCN1CCN(c2ccc([N+](=O)[O-])cc2OC)CC1`, the melting point lay within 84 to 85 °C.
Consider `N#Cc1nc(Cl)c(-c2c(F)cc(F)cc2F)c(N2CCCO2)n1`, for which the melting point fell in the range of 107 to 113 °C.
In turn, `Cc1ccc(-c2nc(C)cc(Cl)n2)cc1` showed a melting point of 103 to 104 °C.
As for `COc1ccc(C=O)cc1OCc1nc(-c2ccccc2)oc1C`, the figure is 121 to 122 °C; as for `Cn1ncc(N2CCCCC2)c(C=NO)c1=O`, 170 to 171 °C.
In the case of `CC(=O)N[C@@H](C)COc1ccc2nc(-c3ccc(OCC4CC4)c(F)c3)oc2c1`, the melting point was determined as 174 °C.
`CC(C)(C)c1ccc(C(=O)CCCN2CCC(O)CC2)cc1` came in with a melting point of 63 to 65 °C.
As for `CCCCCN(CCC12CC3CC(CC(C3)C1)C2)C(=O)NC(C)CCc1ccncc1` (stereo not drawn), the figure is 128 to 129 °C; as for `CN(Cc1ccc(F)cc1)C1CCN(c2ccc([N+](=O)[O-])cc2)CC1`, 89 to 90 °C.
With `CCCOc1ccc(/C=C/c2nc3c([nH]2)c(=O)n(CCC)c(=O)n3CCC)cc1` the figure was 248 to 249 °C; with `ON=C1CCc2cc(F)ccc21`, 150 to 155 °C; with `CC1(C)CC(=O)C2=C(C1)NC1=C(C(=O)CC(C)(C)C1)C2c1ccc(Cl)c(OCc2ccccc2)c1`, 243 to 244 °C.
Compound `COc1ccc(Cn2c(C)c(C=O)c3cnnc(OCc4ccccc4)c32)cc1` yielded a melting point of 139 to 145 °C.
`O=C(O)CNC(=O)c1nc2ccccc2cc1O` yielded a melting point of 191 °C.
For the compound `COc1cc(C)cc(C(=O)NC(C)P(=O)(O)O)c1C1=CC(=O)c2c(O)cccc2C1=O` (stereo not drawn), the melting point is above 300 °C.
`COc1ccc(CN2C(=O)C3(COc4cc5c(cc43)OCO5)c3ccccc32)cc1` (stereo not drawn): the melting point is 147 to 148 °C.
In the case of `O=C(O)CN1C(=O)O[C@H](c2ccccc2)[C@@H]1c1ccccc1`, the melting point lay in the range of 161 to 163 °C.
`CCN(CC)c1ccc(N(c2ccc(N(CC)CC)cc2)C2(c3ccc(N(CC)CC)cc3C)OC(=O)c3ccccc32)cc1` (stereo not drawn) came in with a melting point of 58 to 71 °C.
`CC(=O)On1cnc2c(Br)csc2c1=O` displayed a melting point of 159 to 162 °C.
As for `CC1=CC(c2cccc(OC(F)(F)F)c2)C2=C(CCCC2=O)N1` (stereo not drawn), the figure is 144 to 146 °C.
Turning to `CCCCc1c(C(=O)OCC)[nH]c2cccc(SC)c2c1=O`, the melting point amounted to 80 °C.
For the compound `COc1ccc2cccc(N3C(=O)CN(CC#N)CC3=O)c2c1`, the melting point was 204 °C.
Take `CC(C)(C)OC(=O)CN(C(=O)CN1C(=O)c2ccccc2C1=O)c1ccccc1Oc1ccccc1`: the melting point turned out to be 145 °C.
`O=C(O)Cc1cc2c(s1)-c1ccccc1OC2C1=CCCC=C1` (stereo not drawn) displayed a melting point of 105 to 110 °C.
With `O=C1NC(C(=O)NCCO[N+](=O)[O-])C(c2ccccc2)S1` (stereo not drawn) the figure was 139 to 140 °C; with `Cc1ccc(C2c3c(C)c(N4CCN(c5ccc(C)cc5)CC4)c(C)c(C)c3OC2(C)C)cc1` (stereo not drawn), 157 to 158 °C; with `COc1cc2ncnc(Nc3cccc(Cl)c3F)c2cc1OC1CCN(C(=O)OC(C)(C)C)CC1`, 192 to 194 °C.
Compound `CCCCCCCCCCCCCCCCCC(c1ccc(O)cc1)c1ccc(O)cc1` yielded a melting point of 88 to 90 °C.
`O=C(O)COc1cc(Cl)ccc1C(=O)NCc1cc(F)cc(C(F)(F)F)c1`: the melting point lay in the range of 160 to 162 °C.
`COc1ccc2[nH]c(SCc3nccc(N4CCOCC4)c3F)nc2c1` gave a melting point of 121 to 123 °C.
In turn, `CC(C)(C)[S@@](=O)/N=C/c1cc(F)cc(C#N)c1` gave a melting point of 93 to 99 °C.
As for `O=C(Nc1nnn[nH]1)c1cc2c(cc1[N+](=O)[O-])OCO2`, the figure is 279 °C; as for `CC1(C)OC(=O)C(Oc2ccc(F)c(F)c2)=C1c1ccc(S(C)(=O)=O)cc1`, 93 to 95 °C; as for `ClCc1nnc2n1-c1ccc(Cl)cc1C(c1ccccc1Cl)=NC2`, 195 to 198 °C.
`CCCc1nc(S)nn1-c1ccccc1` showed a melting point of 142 to 143 °C.
Regarding `N#Cc1ncn2c(C(F)(F)F)cc(-c3ccc(OCC(F)(F)F)c(C(F)(F)F)c3)nc12`, the melting point came out at 189 °C.
With `Cc1nc2scc(C)n2c(=O)c1CCN1CCC(Nc2nc3ccccc3n2Cc2ccc(F)cc2)CC1` the figure was 141 °C; with `C=CC(=O)[C@H](Cc1cc(F)cc(F)c1)NC(=O)OC(C)(C)C`, 115 °C.
`COc1cc(C(=O)NCCc2ccccc2)cc([N+](=O)[O-])c1OC` showed a melting point of 121 to 122 °C.
Consider `CC(C)NCC(O)COc1ccc2ncsc2c1` (stereo not drawn), for which the melting point was 132 to 134 °C.
`N#Cc1nc(SCc2cnn(-c3c(Cl)cc(C(F)(F)F)cc3Cl)n2)n(Cc2ccccc2)c1C#N` showed a melting point of 132 °C.
`Cc1ccc(-c2nc(N3CCN(C)CC3)c3c(C)c(C#N)sc3n2)cc1` registered a melting point of 207 to 209 °C.
In turn, `CCOC(=O)CCCn1nc(-c2c(-c3ccccc3)nn3ccccc23)ccc1=O` returned a melting point of 71 to 75 °C.
Consider `Cc1cc2c3c(ccn3-c3ccccc3C(N3CCN(C)CC3)=N2)c1`, for which the melting point was 167 to 168 °C.
`Cc1c(CCl)oc2ccc([N+](=O)[O-])cc12`: the melting point was 141 to 142 °C.
As for `Cc1cc2nc(-c3cc(C(F)(F)F)nn3-c3ccc(S(C)(=O)=O)cc3)sc2cc1F`, the melting point fell in the range of 193 to 194 °C.
As for `C=CCNC(=O)C=C(C)N`, the figure is 143 to 144 °C.
In the case of `CC(C)(C)c1csc(-c2cc3cc(CSc4ccccc4C(=O)O)ccc3o2)n1`, the melting point is 205 to 207 °C.
The compound `CN(c1cccc2cc(C3=NCC4(CCN(CCO)CC4)S3)[nH]c12)S(=O)(=O)c1cccs1` had a melting point of 214 °C.
Regarding `O=C(O)c1ccccc1CN1CCc2sccc2C1`, the melting point fell in the range of 200 to 205 °C.
In turn, `CN(C(=O)c1cnc(N2CC(C)(C)NC2=O)nc1N)c1cccc(C(F)(F)F)c1` returned a melting point of 210 to 211 °C.
`CC(C)(C)NS(=O)(=O)c1ccsc1C1=CC(=O)CCC1` yielded a melting point of 157 to 158 °C.
For `O=C1NC(=O)C(Cc2ccc3c(c2)CCCN3Cc2ccccc2)S1` (stereo not drawn), the melting point lay within 155 to 158 °C.
Turning to `CC(=O)CCCCCNC(=O)Nc1ccccc1CCc1cc(C(C)(C)C)c(O)c(C(C)(C)C)c1`, the melting point lay in the range of 73 to 76 °C.
For the compound `Nc1ccc(OC[C@@H]2CCCN2c2ccc3ccccc3n2)cc1`, the melting point lay within 138 to 140 °C.
On to `O=C(CO)Cc1ccc2ccccc2c1`, for which the melting point was 109 to 110 °C.
`Nc1ccc2c(c1)-c1ccccc1S2=O` (stereo not drawn) displayed a melting point of 169 to 172 °C.
In the case of `COCCN1CCc2ccc(Nc3ncc(Cl)c(N[C@@H]4CCCC[C@H]4NC(=O)C(F)(F)F)n3)cc2CC1`, the melting point was 180 to 182 °C.
Compound `CCOC(=O)C1CCC(c2ccccc2)n2c(=O)n(CCCl)c(=O)n21` (stereo not drawn) had a melting point of 87 to 89 °C.
The compound `CC(C)OC(=O)c1cc(-n2c(=O)c(F)c(CF)n(C)c2=O)c(F)cc1Cl` gave a melting point of 85 to 89 °C.
As for `COc1cc2c(cc1OC)CN(CC(=O)Nc1ccc(N)cc1)CC2`, the figure is 185 °C; as for `Cc1nc2c(ncn2COCCO)c(=S)[nH]1`, 190 to 193 °C.
`Oc1ccc(-c2ncc3ncc(-c4ccco4)cc3n2)cc1` displayed a melting point of 261 to 263 °C.
In the case of `CCN(CC)C(=O)Nc1ccc(S(=O)(=O)N2C(=O)C(NCCCC(N)=O)(c3ccccc3Cl)c3cc(Cl)ccc32)cc1` (stereo not drawn), the melting point came to 192 °C.

(Values after a melting point compilation (Tetko et al.; mined from patent text by program, amines drawn as free bases though some values may be those of a salt).)
